What all share (type): functional
For assay [1], the system named is Staphylococcus aureus. The experiment in a line: Antibacterial activity against Staphylococcus aureus assessed growth inhibition by micro broth dilution method.
Assay [2] has as its system Staphylococcus aureus. The experiment in a line: Antibacterial activity against Staphylococcus aureus ATCC 25923 assessed growth inhibition by micro broth dilution method.
For assay [3], the system named is Staphylococcus aureus. The experiment in a line: Antibacterial activity against methicillin-resistant Staphylococcus aureus assessed growth inhibition by micro broth dilution method. On the technique in general: Dilution methods test growth across graded concentrations, often in twofold steps.
The subject of assay [4] is Escherichia coli. The assay can be described thus: Antibacterial activity against Escherichia coli ATCC 25922 assessed growth inhibition by micro broth dilution method.
A further assay deals with Enterococcus faecalis. The experiment in a line: Antibacterial activity against Enterococcus faecalis assessed growth inhibition by micro broth dilution method.
Assay [5] has as its system Pseudomonas aeruginosa. The assay can be described thus: Antibacterial activity against Pseudomonas aeruginosa ATCC 27853 assessed growth inhibition by micro broth dilution method.
The subject of assay [6] is Escherichia coli. The assay can be described thus: Antibacterial activity against Escherichia coli assessed growth inhibition by micro broth dilution method.
Another assay has as its system Acinetobacter baumannii. The assay can be described thus: Antibacterial activity against Acinetobacter baumannii assessed growth inhibition by micro broth dilution method.
The subject of assay [7] is Pseudomonas aeruginosa. The experiment in a line: Antibacterial activity against Pseudomonas aeruginosa assessed growth inhibition by micro broth dilution method.
The next assay has as its system Klebsiella pneumoniae. The experiment in a line: Antibacterial activity against Klebsiella pneumonia assessed growth inhibition by micro broth dilution method.
Assay [8] relates to Staphylococcus aureus. The experiment in a line: Antibacterial activity against Staphylococcus aureus ATCC 29213 assessed growth inhibition by micro broth dilution method.

Values after ≈ are worked out from the molar mass of the structure shown.

This is an account of results in ChEMBL document CHEMBL5528028, “Discovery of benzopyridone cyanoacetates as new type of potential broad-spectrum antibacterial candidates” (Eur J Med Chem, 2024).

Turning to `CCOC(=O)c1cn(CC2CC2)c2cc([C-](C#N)C(=O)OCC)c(F)cc2c1=O.[Na+]` (stereo not given), the minimal inhibitory concentration (MIC) (in general, the smallest concentration in the dilution series that meets the test's criterion for growth inhibition) in the assay with Staphylococcus aureus [1] stood at 64 µg/mL; against Staphylococcus aureus [2], 4 µg/mL; against Staphylococcus aureus [3], 64 µg/mL; against Escherichia coli [4] it was 4 µg/mL; in the assay with Enterococcus faecalis, 64 µg/mL; against Pseudomonas aeruginosa [5] it was 8 µg/mL. Besides, the minimal inhibitory concentration (MIC) with Escherichia coli [6], against Acinetobacter baumannii, against Pseudomonas aeruginosa [7], in the assay with Klebsiella pneumoniae and in the assay on Staphylococcus aureus [8] was 16 µg/mL in each case.
As to `CCOC(=O)C(C#N)c1cc2c(cc1F)c(=O)c(C(=O)O)cn2Cc1ccc(Cl)cc1Cl` (stereo not given), the minimum inhibitory concentration (MIC) in the assay on Staphylococcus aureus [1] is 1 µg/mL (≈ 2.1 µM); in the assay on Staphylococcus aureus [2], 1 µg/mL (≈ 2.1 µM); in the assay with Staphylococcus aureus [3], 2 µg/mL (≈ 4.19 µM); against Escherichia coli [4], 0.5 µg/mL (≈ 1.05 µM); with Enterococcus faecalis, 8 µg/mL (≈ 16.8 µM); in the assay with Pseudomonas aeruginosa [5], 2 µg/mL (≈ 4.19 µM). Also, the MIC came out at 16 µg/mL (≈ 33.5 µM) in the assay with Escherichia coli [6]; 1 µg/mL (≈ 2.1 µM) in the assay on Acinetobacter baumannii; 4 µg/mL (≈ 8.38 µM) against Pseudomonas aeruginosa [7]; 0.25 µg/mL (≈ 0.524 µM) against Klebsiella pneumoniae; 2 µg/mL (≈ 4.19 µM) against Staphylococcus aureus [8].
As to `CCOC(=O)c1cn(Cc2ccc(Cl)c(Cl)c2)c2cc(F)c(F)cc2c1=O`, the minimal inhibitory concentration (MIC) against Staphylococcus aureus [1] is 16 µg/mL (≈ 38.8 µM); in the assay on Staphylococcus aureus [2], 256 µg/mL (≈ 621 µM); in the assay with Staphylococcus aureus [3], 256 µg/mL (≈ 621 µM); with Escherichia coli [4] it was 2 µg/mL (≈ 4.85 µM); against Enterococcus faecalis, 128 µg/mL (≈ 311 µM); against Pseudomonas aeruginosa [5], 64 µg/mL (≈ 155 µM). The minimum inhibitory concentration (MIC) was determined as 8 µg/mL (≈ 19.4 µM) with Escherichia coli [6]; 256 µg/mL (≈ 621 µM) in the assay with Acinetobacter baumannii; 32 µg/mL (≈ 77.6 µM) against Pseudomonas aeruginosa [7]; 0.5 µg/mL (≈ 1.21 µM) with Klebsiella pneumoniae; 256 µg/mL (≈ 621 µM) against Staphylococcus aureus [8].
For `CCOC(=O)c1cn(Cc2cccc(Cl)c2)c2cc(F)c(F)cc2c1=O`, the MIC is 64 µg/mL (≈ 169 µM) against Staphylococcus aureus [1]; 64 µg/mL (≈ 169 µM) against Staphylococcus aureus [2]; 256 µg/mL (≈ 678 µM) in the assay with Staphylococcus aureus [3]; 64 µg/mL (≈ 169 µM) in the assay with Escherichia coli [4]; 2 µg/mL (≈ 5.29 µM) with Enterococcus faecalis; 32 µg/mL (≈ 84.7 µM) in the assay on Pseudomonas aeruginosa [5]. In addition, the MIC in the assay with Escherichia coli [6] stood at 1 µg/mL (≈ 2.65 µM); in the assay with Acinetobacter baumannii, 4 µg/mL (≈ 10.6 µM); in the assay with Pseudomonas aeruginosa [7] it was 256 µg/mL (≈ 678 µM); against Klebsiella pneumoniae, 32 µg/mL (≈ 84.7 µM); in the assay with Staphylococcus aureus [8] it was 128 µg/mL (≈ 339 µM).
Regarding `CCOC(=O)c1cn(CC2CCCC2)c2cc([C-](C#N)C(=O)OCC)c(F)cc2c1=O.[Na+]` (stereo not given), the minimal inhibitory concentration (MIC) was found to be 16 µg/mL in the assay with Staphylococcus aureus [1]; 8 µg/mL with Staphylococcus aureus [2]; 16 µg/mL against Staphylococcus aureus [3]; 2 µg/mL in the assay with Escherichia coli [4]; 2 µg/mL with Enterococcus faecalis; 8 µg/mL against Pseudomonas aeruginosa [5]. Moreover, the MIC in the assay on Escherichia coli [6] was determined as 128 µg/mL; in the assay on Acinetobacter baumannii, 4 µg/mL; with Pseudomonas aeruginosa [7], 8 µg/mL; in the assay on Klebsiella pneumoniae, 8 µg/mL; against Staphylococcus aureus [8], 4 µg/mL.
For the molecule `CCOC(=O)c1cn(Cc2ccc(Cl)cc2)c2cc(F)c(F)cc2c1=O`, the MIC came out at 64 µg/mL (≈ 169 µM) in the assay on Staphylococcus aureus [1]; 256 µg/mL (≈ 678 µM) in the assay on Staphylococcus aureus [2]; 256 µg/mL (≈ 678 µM) in the assay with Staphylococcus aureus [3]; 128 µg/mL (≈ 339 µM) with Escherichia coli [4]; 64 µg/mL (≈ 169 µM) in the assay with Enterococcus faecalis; 256 µg/mL (≈ 678 µM) with Pseudomonas aeruginosa [5]. Moreover, the minimal inhibitory concentration (MIC) against Escherichia coli [6] stood at 1 µg/mL (≈ 2.65 µM); in the assay on Acinetobacter baumannii, 4 µg/mL (≈ 10.6 µM); with Pseudomonas aeruginosa [7], 256 µg/mL (≈ 678 µM); in the assay with Klebsiella pneumoniae, 32 µg/mL (≈ 84.7 µM); against Staphylococcus aureus [8], 256 µg/mL (≈ 678 µM).
Consider `CCOC(=O)c1cn(CC)c2c(F)c(F)c(F)cc2c1=O`, for which the MIC against Staphylococcus aureus [1] came to 32 µg/mL (≈ 107 µM); against Staphylococcus aureus [2], 64 µg/mL (≈ 214 µM); in the assay on Staphylococcus aureus [3], 128 µg/mL (≈ 428 µM); in the assay on Escherichia coli [4], 64 µg/mL (≈ 214 µM); in the assay on Enterococcus faecalis it was 128 µg/mL (≈ 428 µM); against Pseudomonas aeruginosa [5] it was 256 µg/mL (≈ 855 µM). The MIC in the assay with Escherichia coli [6] came to 8 µg/mL (≈ 26.7 µM); against Acinetobacter baumannii, 32 µg/mL (≈ 107 µM); in the assay with Pseudomonas aeruginosa [7], 32 µg/mL (≈ 107 µM); in the assay with Klebsiella pneumoniae, 32 µg/mL (≈ 107 µM); against Staphylococcus aureus [8], 128 µg/mL (≈ 428 µM).
On to `CCOC(=O)c1cn(CC(=O)N2CCCCC2)c2cc(F)c(F)cc2c1=O`, for which the minimum inhibitory concentration (MIC) in the assay with Staphylococcus aureus [1] is 256 µg/mL (≈ 677 µM); with Staphylococcus aureus [2] it was 128 µg/mL (≈ 338 µM); with Staphylococcus aureus [3] it was 256 µg/mL (≈ 677 µM); against Escherichia coli [4], 64 µg/mL (≈ 169 µM); with Enterococcus faecalis it was 64 µg/mL (≈ 169 µM); against Pseudomonas aeruginosa [5], 64 µg/mL (≈ 169 µM). Also, the MIC against Escherichia coli [6] came to 16 µg/mL (≈ 42.3 µM); in the assay on Acinetobacter baumannii, 64 µg/mL (≈ 169 µM); in the assay with Pseudomonas aeruginosa [7], 32 µg/mL (≈ 84.6 µM); against Klebsiella pneumoniae it was 256 µg/mL (≈ 677 µM); against Staphylococcus aureus [8] it was 64 µg/mL (≈ 169 µM).
Turning to `CCOC(=O)c1cn(Cc2ccc(F)cc2F)c2cc(C(C#N)C(=O)OCC)c(F)cc2c1=O` (stereo not given), the MIC came to 8 µg/mL (≈ 16.9 µM) with Staphylococcus aureus [1]; 4 µg/mL (≈ 8.47 µM) with Staphylococcus aureus [2]; 32 µg/mL (≈ 67.7 µM) against Staphylococcus aureus [3]; 16 µg/mL (≈ 33.9 µM) in the assay on Escherichia coli [4]; 16 µg/mL (≈ 33.9 µM) in the assay with Enterococcus faecalis; 4 µg/mL (≈ 8.47 µM) against Pseudomonas aeruginosa [5]. Also, the MIC was found to be 16 µg/mL (≈ 33.9 µM) in the assay on Escherichia coli [6]; 32 µg/mL (≈ 67.7 µM) against Acinetobacter baumannii; 2 µg/mL (≈ 4.23 µM) in the assay on Pseudomonas aeruginosa [7]; 4 µg/mL (≈ 8.47 µM) against Klebsiella pneumoniae; 4 µg/mL (≈ 8.47 µM) in the assay on Staphylococcus aureus [8].
Take `CCCCCCCCn1cc(C(=O)O)c(=O)c2cc(F)c(C(C#N)C(=O)OCC)cc21` (stereo not given): the MIC with Staphylococcus aureus [1] came out at 4 µg/mL (≈ 9.29 µM); against Staphylococcus aureus [2] it was 1 µg/mL (≈ 2.32 µM); against Staphylococcus aureus [3] it was 8 µg/mL (≈ 18.6 µM); against Escherichia coli [4], 0.5 µg/mL (≈ 1.16 µM); against Enterococcus faecalis, 16 µg/mL (≈ 37.2 µM); against Pseudomonas aeruginosa [5], 1 µg/mL (≈ 2.32 µM). For the same molecule, the MIC was 32 µg/mL (≈ 74.3 µM) in the assay on Escherichia coli [6]; 1 µg/mL (≈ 2.32 µM) in the assay on Acinetobacter baumannii; 4 µg/mL (≈ 9.29 µM) in the assay with Pseudomonas aeruginosa [7]; 0.25 µg/mL (≈ 0.581 µM) in the assay with Klebsiella pneumoniae; 4 µg/mL (≈ 9.29 µM) with Staphylococcus aureus [8].
